From the supplement of paper PMC10307832

What was measured:
Experiment in all cases: relative viability (nuclei count vs DMSO), 5 days (fraction); higher = more cells survive
MK-8033 + Foretinib = compound: Cn1cc(-c2cnc3ccc4ccc(CS(=O)(=O)NCc5ccccn5)cc4c(=O)c3c2)cn1 [MK-8033] + COc1cc2c(Oc3ccc(NC(=O)C4(C(=O)Nc5ccc(F)cc5)CC4)cc3F)ccnc2cc1OCCCN1CCOCC1 [Foretinib] (partner 0.25 µM)
Summary of the method: (§1)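 Nuclei were stained with Hoechst during a one-step fixation (final 0.05% Triton X-100, 1% formaldehyde, 1 ug/ml Hoechst) carried out 5 days after dosing, then counted on 4× images. The cells, lung cancer lines in 1536-well plates, had been dosed by pin tool the day after seeding with one drug alone or a fixed anchor-drug dose plus five library-drug doses (not always all listed) in √10 steps. Relative viability is the nuclei count in treated wells divided by that in vehicle wells, and each value is the median of duplicate plates.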

Irinotecan + Decitabine = compound: CCc1c2c(nc3ccc(OC(=O)N4CCC(N5CCCCC5)CC4)cc13)-c1cc3c(c(=O)n1C2)COC(=O)[C@]3(O)CC [Irinotecan] + Nc1ncn([C@H]2C[C@H](O)[C@@H](CO)O2)c(=O)n1 [Decitabine] (partner 2 µM)
Summary of the method: as §1

RU-SKI 43 + OSI-027 = compound: CC[C@@H](C)CNCC(=O)N1CCC2=C([C@@H]1COC3=CC=CC(=C3)C)C=CS2 [RU-SKI 43] + COc1cccc2cc(-c3nc([C@H]4CC[C@H](C(=O)O)CC4)n4ncnc(N)c34)[nH]c12 [OSI-027] (partner 0.5 µM)
Summary of the method: as §1

RU-SKI 43 + Decitabine = compound: CC[C@@H](C)CNCC(=O)N1CCC2=C([C@@H]1COC3=CC=CC(=C3)C)C=CS2 [RU-SKI 43] + Nc1ncn([C@H]2C[C@H](O)[C@@H](CO)O2)c(=O)n1 [Decitabine] (partner 2 µM)
Summary of the method: as §1

Cell Line | relative viability (MK-8033 + Foretinib; first compound 0.02 µM) | relative viability (MK-8033 + Foretinib; first compound 0.06325 µM) | relative viability (MK-8033 + Foretinib; first compound 0.2 µM) | relative viability (MK-8033 + Foretinib; first compound 0.6325 µM) | relative viability (MK-8033 + Foretinib; first compound 2 µM) | relative viability (Irinotecan + Decitabine; first compound 0.6325 µM) | relative viability (Irinotecan + Decitabine; first compound 2 µM) | relative viability (Irinotecan + Decitabine; first compound 6.325 µM) | relative viability (Irinotecan + Decitabine; first compound 20 µM) | relative viability (RU-SKI 43 + OSI-027; first compound 0.1 µM) | relative viability (RU-SKI 43 + OSI-027; first compound 0.3162 µM) | relative viability (RU-SKI 43 + OSI-027; first compound 1 µM) | relative viability (RU-SKI 43 + OSI-027; first compound 3.162 µM) | relative viability (RU-SKI 43 + OSI-027; first compound 10 µM) | relative viability (RU-SKI 43 + Decitabine; first compound 0.1 µM) | relative viability (RU-SKI 43 + Decitabine; first compound 0.3162 µM) | relative viability (RU-SKI 43 + Decitabine; first compound 1 µM) | relative viability (RU-SKI 43 + Decitabine; first compound 3.162 µM) | relative viability (RU-SKI 43 + Decitabine; first compound 10 µM)
HCC-366 | 0.965 | 0.864 | 0.929 | 0.965 | 0.962 | 0.341 | 0.212 | 0.104 | 0.0739 | 0.962 | 0.94 | 1.02 | 0.931 | 0.452 | 0.3 | 0.399 | 0.328 | 0.354 | 0.352
HCC-827 | 1.1 | – | 0.989 | 0.967 | 1.03 | 0.337 | 0.326 | 0.174 | 0.221 | 0.73 | 0.94 | 0.889 | 0.783 | 0.736 | 0.336 | 0.269 | 0.395 | 0.288 | 0.315
HOP-62 | 1.07 | 1.07 | 1.03 | 1.06 | 1.18 | 0.22 | 0.198 | 0.187 | 0.212 | 0.912 | 1.02 | 1.1 | 0.915 | 0.928 | 0.231 | 0.179 | 0.248 | 0.202 | 0.209
IA-LM | 0.989 | 1.03 | 1.17 | 1.15 | 1.12 | – | – | – | – | – | – | – | – | – | – | – | – | – | –
LC-2-ad | 0.94 | 0.867 | – | 0.981 | 0.944 | 0.532 | 0.355 | 0.338 | 0.262 | 0.733 | 0.821 | 1.04 | 0.979 | 0.789 | 0.866 | 0.766 | 0.81 | 0.849 | 0.728
LCLC-97TM1 | 0.9 | 0.924 | 0.925 | 0.951 | 0.969 | 0.135 | 0.107 | 0.105 | 0.115 | 0.486 | 0.551 | 0.627 | 0.496 | 0.485 | 0.24 | 0.239 | 0.243 | 0.237 | 0.246
LCLC-103H | 0.747 | 0.707 | 0.696 | 0.84 | 0.806 | 0.63 | 0.524 | 0.458 | 0.432 | 0.512 | 0.576 | 0.567 | 0.486 | 0.56 | 0.728 | 0.762 | 0.732 | 0.764 | 0.72
LK-2 | 1.05 | – | 1.13 | 1.42 | 1.08 | 0.285 | 0.379 | 0.226 | 0.216 | 0.182 | 0.169 | 0.227 | 0.177 | 0.183 | 0.317 | 0.279 | 0.408 | 0.298 | 0.246
LOU-NH91 | 0.94 | 0.583 | 0.906 | 0.878 | 0.9 | 0.79 | 0.768 | 0.492 | 0.311 | 0.752 | 0.642 | 0.74 | 0.774 | 0.728 | 0.786 | 0.828 | 0.809 | 0.805 | 0.824
LU99A | 0.903 | 0.716 | 0.834 | 0.841 | 0.743 | 0.196 | 0.184 | 0.157 | 0.169 | 0.298 | 0.282 | 0.314 | 0.309 | 0.317 | 0.746 | 1.1 | 1.05 | 0.91 | 0.711
LXF-289 | 0.965 | 0.934 | 0.938 | 1.04 | 0.965 | 0.351 | 0.218 | 0.162 | 0.165 | 0.776 | 0.874 | 0.951 | 0.827 | 0.733 | 0.373 | 0.357 | 0.384 | 0.41 | 0.388
NCI-H23 | 0.826 | 0.932 | 0.961 | 1.02 | 0.942 | 0.288 | 0.243 | 0.211 | 0.251 | 0.659 | 0.523 | 0.782 | 0.709 | 0.5 | 0.309 | 0.319 | 0.326 | 0.291 | 0.335
NCI-H322M | 0.918 | 0.868 | 0.955 | 1.03 | 0.965 | 0.602 | 0.725 | 0.548 | 0.342 | 0.548 | 0.511 | 0.581 | 0.576 | 0.575 | 0.631 | 0.673 | 0.717 | 0.689 | 0.65
NCI-H522 | – | – | – | – | – | 0.605 | 0.492 | 0.577 | 0.636 | 0.823 | 0.726 | 0.71 | 0.708 | 0.716 | 0.682 | 0.568 | 0.669 | 0.768 | 0.677
NCI-H1299 | 1.09 | 1.08 | 1.02 | 1.13 | 1.06 | – | – | – | – | – | – | – | – | – | – | – | – | – | –
NCI-H1563 | 0.899 | 0.927 | 0.903 | 0.97 | 0.981 | – | – | – | – | 0.772 | 0.778 | 0.819 | 0.75 | 0.786 | – | – | – | – | –
NCI-H1623 | 0.904 | 0.729 | 0.889 | 0.812 | 0.943 | – | – | – | – | 0.435 | 0.421 | 0.428 | 0.443 | 0.448 | – | – | – | – | –
NCI-H1648 | – | – | – | – | – | 0.501 | 0.469 | 0.446 | 0.428 | – | – | 0.255 | 0.251 | 0.221 | 0.452 | 0.535 | 0.466 | 0.554 | 0.444
NCI-H1703 | 0.316 | 0.393 | 0.351 | 0.32 | 0.337 | – | – | – | – | – | – | – | – | – | – | – | – | – | –
NCI-H1792 | – | – | – | – | – | 0.405 | 0.522 | 0.287 | 0.228 | 0.682 | 1.05 | 0.969 | 0.939 | 0.707 | 0.392 | 0.667 | 0.682 | 0.728 | 0.561
NCI-H2228 | 0.96 | 0.806 | 0.673 | 0.721 | 0.749 | – | – | – | – | 0.651 | 0.722 | 0.483 | 0.689 | 0.471 | – | – | – | – | –
